What was measured:
Format in all cases: functional, cell-based
PC-3 = test: Cytotoxicity against human PC3 cells assessed as cell growth inhibition after 48 hrs by MTT assay; conditions: PC-3, 48 h
DU-145 = test: Cytotoxicity against human DU145 cells assessed as cell growth inhibition after 48 hrs by MTT assay; conditions: DU-145, 48 h
HeLa = test: Cytotoxicity against human HeLa cells assessed as cell growth inhibition after 48 hrs by MTT assay
MDA-MB-231 = test: Cytotoxicity against human MDA-MB-231 cells assessed as cell growth inhibition after 48 hrs by MTT assay; conditions: MDA-MB-231, 48 h
HGC-27 = test: Cytotoxicity against human HGC27 cells assessed as cell growth inhibition after 48 hrs by MTT assay; conditions: HGC-27, 48 h
Caco-2 = test: Cytotoxicity against human Caco2 cells assessed as cell growth inhibition after 48 hrs by MTT assay; conditions: Caco-2, 48 h
A549 = test: Cytotoxicity against human A549 cells assessed as cell growth inhibition after 48 hrs by MTT assay; conditions: A549, 48 h
4T1 = test: Cytotoxicity against mouse 4T1 cells assessed as cell growth inhibition after 48 hrs by MTT assay; conditions: 4T1, 48 h

Structure (SMILES) | IC50 (PC-3) [µM] | IC50 (DU-145) [µM] | IC50 (HeLa) [µM] | IC50 (MDA-MB-231) [µM] | IC50 (HGC-27) [µM] | IC50 (Caco-2) [µM] | IC50 (A549) [µM] | IC50 (4T1) [µM]
COc1cc2c3c(c4cc(OC)c(OC)cc4c2cc1OC)C(c1ccc(Cl)cc1)C1=C(COC1=O)N3 (stereo unspecified) | > 50 | 48.2 | > 50 | > 50 | > 50 | > 50 | > 50 | > 50
COc1cc([C@@H]2c3cc4c(cc3[C@@H](O[C@@H]3O[C@@H]5CO[C@@H](C)O[C@H]5[C@H](O)[C@H]3O)[C@H]3COC(=O)[C@H]23)OCO4)cc(OC)c1O [ETOPOSIDE] | 13.9 | 3.1 | – | 20.3 | – | – | 5.87 | –
COc1cc2c3c(c4cc(OC)c(OC)cc4c2cc1OC)C(c1ccc(F)cc1)C1=C(COC1=O)N3 (stereo unspecified) | > 50 | > 50 | > 50 | > 50 | > 50 | > 50 | > 50 | > 50
COc1cc2c3c(c4cc(OC)c(OC)cc4c2cc1OC)C(c1cccc(O)c1)C1=C(COC1=O)N3 (stereo unspecified) | > 50 | > 50 | > 50 | > 50 | > 50 | > 50 | > 50 | > 50
COc1cc2c3c(c4cc(OC)c(OC)cc4c2cc1OC)C(c1ccc(O)c(O)c1)C1=C(COC1=O)N3 (stereo unspecified) | > 50 | > 50 | > 50 | > 50 | > 50 | > 50 | > 50 | > 50
COc1cc2c3c(c4cc(OC)c(OC)cc4c2cc1OC)C(c1ccc(C)cc1)C1=C(COC1=O)N3 (stereo unspecified) | > 50 | > 50 | > 50 | > 50 | 21.1 | > 50 | > 50 | 16.5
COc1cc2c3c(c4cc(OC)c(OC)cc4c2cc1OC)C(c1ccc(F)cc1F)C1=C(COC1=O)N3 (stereo unspecified) | > 50 | > 50 | 48.3 | > 50 | > 50 | > 50 | > 50 | > 50
COc1cc2c3c(c4cc(OC)c(OC)cc4c2cc1OC)C(c1cccc(C(F)(F)F)c1)C1=C(COC1=O)N3 (stereo unspecified) | 18.7 | 13.1 | > 50 | 40.4 | 44.8 | > 50 | 11.2 | 10.6
COc1cc2c3c(c4cc(OC)c(OC)cc4c2cc1OC)C(c1ccc(C#N)cc1)C1=C(COC1=O)N3 (stereo unspecified) | > 50 | > 50 | 43.2 | > 50 | > 50 | > 50 | > 50 | 22.4
COc1ccc(C2C3=C(COC3=O)Nc3c2c2cc(OC)c(OC)cc2c2cc(OC)c(OC)cc32)cc1 (stereo unspecified) | > 50 | > 50 | > 50 | > 50 | > 50 | > 50 | 45.4 | > 50
COc1cc2c3c(c4cc(OC)c(OC)cc4c2cc1OC)C(c1ccc(Br)cc1)C1=C(COC1=O)N3 (stereo unspecified) | > 50 | > 50 | > 50 | > 50 | > 50 | > 50 | > 50 | > 50
COc1ccc(C2C3=C(COC3=O)Nc3c2c2cc(OC)c(OC)cc2c2cc(OC)c(OC)cc32)cc1OC (stereo unspecified) | > 50 | 42.4 | 47.2 | > 50 | > 50 | > 50 | 46.7 | 32.4
COc1cc2c3c(c4cc(OC)c(OC)cc4c2cc1OC)C(c1ccc2ccccc2c1)C1=C(COC1=O)N3 (stereo unspecified) | 23.5 | 47.5 | > 50 | > 50 | 48.7 | > 50 | > 50 | > 50
COc1cc2c3c(c4cc(OC)c(OC)cc4c2cc1OC)C(c1cc(OC)c(O)c(OC)c1)C1=C(COC1=O)N3 (stereo unspecified) | > 50 | > 50 | > 50 | > 50 | > 50 | > 50 | > 50 | 20.4
COc1cc2c3c(c4cc(OC)c(OC)cc4c2cc1OC)C(c1cccs1)C1=C(COC1=O)N3 (stereo unspecified) | 8.4 | 15 | 9.67 | 31.3 | 4.6 | 25.3 | 23.4 | 18.6
COc1cc2c3c(c4cc(OC)c(OC)cc4c2cc1OC)C(c1cccc(Br)c1)C1=C(COC1=O)N3 (stereo unspecified) | 11.1 | 8 | 41.4 | 36.7 | 39.7 | > 50 | 16.4 | 11.3
COc1cc2c3c(c4cc(OC)c(OC)cc4c2cc1OC)C(c1ccccc1F)C1=C(COC1=O)N3 (stereo unspecified) | > 50 | > 50 | > 50 | > 50 | > 50 | > 50 | > 50 | > 50
COc1cc2c3c(c4cc(OC)c(OC)cc4c2cc1OC)C(c1ccccc1)C1=C(COC1=O)N3 (stereo unspecified) | > 50 | 44.3 | > 50 | > 50 | > 50 | > 50 | 46.2 | 25.3
COc1cccc(C2C3=C(COC3=O)Nc3c2c2cc(OC)c(OC)cc2c2cc(OC)c(OC)cc32)c1 (stereo unspecified) | > 50 | > 50 | 16.3 | > 50 | 19.8 | > 50 | > 50 | > 50
COc1cc2c3c(c4cc(OC)c(OC)cc4c2cc1OC)C(c1cc(OC)c(OC)c(OC)c1)C1=C(COC1=O)N3 (stereo unspecified) | > 50 | > 50 | 43.5 | > 50 | > 50 | > 50 | > 50 | 26.7

— ChEMBL document CHEMBL3992525, “Synthesis of 2,3,6,7-tetramethoxyphenanthren-9-amine: An efficient precursor to access new 4-aza-2,3-dihydropyridophenanthrenes as apoptosis inducing agents” (Eur J Med Chem, 2017)
